Legend:
FB1 Hydrolase activity = assay: Effect of various treatments on modification of FB1 by E. spinifera esterase (culture filtrates); assay type: biochemical, Exophiala spinifera; parameters: key: − = no hydrolysis; ± = trace amount of hydrolysis; + = incomplete hydrolysis; ++ = incomplete hydrolysis; +++ = complete hydrolysis; conditions: then incubated with FB1 overnight at 37° C.
Description: (§1) Analytical thin-layer chromatography was carried out on 100% silanized C18 silica plates (Sigma #T-7020; 10×10 cm; 0.1 mm thick) by a modification of the published method of Rottinghaus (Rottinghaus, G. E., Coatney, C. E., and Minor, H. C., A rapid, sensitive thin layer chromatography procedure for the detection of fumonisin b-1 and b-2, J Vet Diagn Invest, 4, 326 (1992), and herein incorporated by reference).
(§2) Sample lanes were pre-wet with methanol to facilitate sample application. After application of from 0.1 to 2 μl of aqueous sample, the plates were air-dried and developed in MeOH:4% KCl (3:2) or MeOH:0.2 M KOH (3:2) and then sprayed successively with 0.1 M sodium borate (pH 9.5) and fluorescamine (0.4 mg/ml in acetonitrile). Plates were air-dried and viewed under long wave UV.
The esterase isolated from E. spinifera was then subjected to other treatments, including proteases, to determine whether and how the enzyme would function in various environments.

maize coleoptiles = assay: Effect of FB1 and AP1 on maize coleoptiles; parameters: key to Injury of maize coleoptiles: + = brown necrotic discoloration of coleoptile; − = no symptoms (same as water control); conditions: for Injury of maize coleoptiles: 2 days dark at 28° C. then 3 days light
Description: Maize coleoptiles from 4 day dark-grown germinated maize seeds were excised above the growing point and placed in 96-well microtiter plates in the presence of 60 microliters of sterile distilled water containing FB1 or AP1 at approximately equimolar concentrations of 1.5, 0.5, 0.15, 0.05, 0.015, 0.005, 0.0015, or 0.0005 millimolar, along with water controls. After 2 days in the dark at 28° C. the coleoptiles were placed in the light and incubated another 3 days.

AP1 catabolase = AP1 catabolase activity: modification of amine-containing substrates by crude cell-free extract; assay type: biochemical, Exophiala spinifera; conditions: for modification by the crude extract (catabolase): cell-free extract of substrate-induced Exophiala spinifera, TLC on C18 silica
Description: A cell-free extract that contains the catabolase activity was obtained by subjecting substrate-induced Exophiala spinifera cells to disruption using a bead beater in sodium acetate buffer, pH 5.2, and recovering the cell-free supernatant by centrifugation and 0.45 micron filtration. Catabolic activity is assayed by incubating extracts with AP1 (hydrolyzed fumonisin B1 backbone) or 14C-labelled AP1 with the extract and evaluating by TLC on C18 silica. The product AP1-N1 has a lower Rf than AP1 and is detected either by radiolabel scan or by H2SO4 spray/charring of the TLC plate. […] Other amine-containing substrates were tested for modification by the crude extract.

[1] = tested on: maize tissue cultured cells (Black Mexican Sweet, BMS); conditions: for concentration at which growth of BMS cells was inhibited: liquid culture, 96-well plates, 1 week, cell density versus water control
maize callus = conditions: solid medium; Van Asch et al. 1992; cited from earlier work
[2] = Hydrolysis of fumonisin B1 by commercial esterases and hydrolases; assay type: biochemical; parameters: key: − = no hydrolysis; ± = trace amount of hydrolysis; + = incomplete hydrolysis; ++ = incomplete hydrolysis; +++ = complete hydrolysis; conditions: assay pH 8.0; overnight at 37° C. with 1 mg/ml fumonisin
Description: as §1, §2
The fumonisin esterase isolated from E. spinifera and R. atrovirens was compared with other known esterases from various sources as supplied by commercial vendors.

Lemna tissues = conditions: Vesonder et al. 1992; cited from earlier work
tomato = conditions: Lamprecht et al. 1994; cited from earlier work
[3] = treatment 0.01 mg/ml, 16 hr, 37° C., pH 5.2

Trypsin
FB1 Hydrolase activity (FB1 Hydrolase activity; [3]): +++

CCCC[C@@H](C)[C@@H](OC(=O)C[C@@H](CC(=O)O)C(=O)O)[C@H](C[C@@H](C)C[C@H](O)CCCC[C@@H](O)C[C@H](O)[C@H](C)N)OC(=O)C[C@@H](CC(=O)O)C(=O)O [FB1, Fumonisin B1]
Injury of maize coleoptiles (maize coleoptiles; 1.5 mM): + | Injury of maize coleoptiles (maize coleoptiles; .0005 mM): − | Injury of maize coleoptiles (maize coleoptiles; .0015 mM): − | Injury of maize coleoptiles (maize coleoptiles; .005 mM): − | Injury of maize coleoptiles (maize coleoptiles; .05 mM): + | Injury of maize coleoptiles (maize coleoptiles; .15 mM): + | Injury of maize coleoptiles (maize coleoptiles; .5 mM): + | modification by the crude extract (catabolase) (AP1 catabolase): not modified | concentration at which growth of BMS cells was inhibited [1]: 400 nM | concentration giving significant inhibition of maize callus (maize callus): 1400 nM

O[C@@H](CS)[C@@H](O)CS [DTT]
FB1 Hydrolase activity (FB1 Hydrolase activity; treatment 25 mM): +++

[Ca+2] [Ca^++]
FB1 Hydrolase activity (FB1 Hydrolase activity; treatment 50 mM): +++

O=C(O)CN(CCN(CC(=O)O)CC(=O)O)CC(=O)O [EDTA]
FB1 Hydrolase activity (FB1 Hydrolase activity; treatment 50 mM): ++

Chymotrypsin
FB1 Hydrolase activity (FB1 Hydrolase activity; [3]): ++

CCCCCCCCCCCCC/C=C/[C@@H](O)[C@@H](N)CO [Sphingosine]
modification by the crude extract (catabolase) (AP1 catabolase): apparently not modified

Cholinesterase, butyryl: EC 3.1.1.8, Horse serum, highly purified
FB1 hydrolysis [2]: −

CCCC[C@@H](C)[C@@H](O)[C@@H](O)C[C@@H](C)C[C@H](O)CCCC[C@@H](O)C[C@H](O)[C@H](C)N [AP1]
Injury of maize coleoptiles (maize coleoptiles; 1.5 mM): + | Injury of maize coleoptiles (maize coleoptiles; .0005 mM): − | Injury of maize coleoptiles (maize coleoptiles; .0015 mM): − | Injury of maize coleoptiles (maize coleoptiles; .005 mM): − | Injury of maize coleoptiles (maize coleoptiles; .015 mM): − | Injury of maize coleoptiles (maize coleoptiles; .05 mM): − | Injury of maize coleoptiles (maize coleoptiles; .15 mM): − | Injury of maize coleoptiles (maize coleoptiles; .5 mM): − | difference in toxicity between FB1 and AP1 to maize coleoptiles (maize coleoptiles; AP1 less toxic than FB1): ≥ 30 fold | time to complete conversion to AP1-N1 (AP1 catabolase; pH 9): 30 min | difference in toxicity (FB1 versus AP1) to maize tissue cultured cells [1]: ~100 fold | concentration at which growth of BMS cells was inhibited [1]: 40000 nM | AP1 less toxic (than FB1) in Lemna tissues (Lemna tissues): approx. 40 fold | reduction in toxicity to tomato by AP1 versus FB1 (tomato): ~100 fold

O=S(=O)(F)Cc1ccccc1 [PMSF, Phenylmethyl sulfonyl fluoride]
FB1 Hydrolase activity (FB1 Hydrolase activity; treatment 10 mM): +++

CCCCCCCCCCCCCCC[C@@H](O)[C@@H](N)CO [sphinganine]
modification by the crude extract (catabolase) (AP1 catabolase): apparently not modified

CCCCCCCCCCCCCC[C@@H](O)[C@@H](O)[C@@H](N)CO [Phytosphingosine]
modification by the crude extract (catabolase) (AP1 catabolase): apparently not modified

[Mg+2] [Mg^++]
FB1 Hydrolase activity (FB1 Hydrolase activity; treatment 50 mM): +++

From patent US6670189B2, “Fumonisin detoxification compositions and methods” (priority 1994, dated 2003)
